According to patent US20220073536A1 (Rigel Pharmaceuticals, Inc., priority 2003, published 2022):
Like-named read-outs stand apart in the source and are kept apart here.

Assays:
[1] = test system: cultured human mast cells (CHMC); experiment: CHMC low cell density IgE activation: tryptase assay; assay type: cell-based; settings: IgE activation
How it was run: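 CHMC were seeded at 1000–1500 cells/well in MT buffer and incubated 1 hr at 37 °C. They were then stimulated with anti-IgE for 30 min at 37 °C, with unstimulated wells as controls. Released tryptase in the supernatant was measured with a fluorogenic substrate after 30 min at room temperature.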

[2] = test system: cultured human mast cells (CHMC); experiment: CHMC low cell density ionomycin activation: tryptase assay; assay type: cell-based; settings: Homo sapiens, Mast cell, low cell density CHMC, read-out: LD Tryptase, CHMC, Iono, 3 pt
[3] = biological target: T1, Syk kinase (Homo sapiens, UniProt P43405); experiment: Syk kinase biochemical fluorescence polarization assay; settings: read-out: fp_syk, 11 pt
T1 construct: purchased Upstate, Lake Placid N.Y
Description: Many of the 2,4-pyrimidinediamine compounds were tested for the ability to inhibit Syk kinase catalyzed phosphorylation of a peptide substrate in a biochemical fluorescenced polarization assay with isolated Syk kinase. In this experiment, Compounds were diluted to 1% DMSO in kinase buffer (20 mM HEPES, pH 7.4, 5 mM MgCl2, 2 mM MnCl2, 1 mM DTT, 0.1 mg/mL acetylated Bovine Gamma Globulin). Compound in 1% DMSO (0.2% DMSO final) was mixed with ATP/substrate solution at room temperature. Syk kinase (Upstate, Lake Placid N.Y.) was added to a final reaction volume of 20 uL, and the reaction was incubated for 30 minutes at room temperature. […] EDTA (10 mM final)/anti-phosphotyrosine antibody (1× final)/fluorescent phosphopeptide tracer (0.5× final) was added in FP Dilution Buffer to stop the reaction for a total volume of 40 uL according to manufacturer's instructions (PanVera Corporation) The plate was incubated for 30 minutes in the dark at room temperature. Plates were read on a Polarion fluorescence polarization plate reader (Tecan). Data were converted to amount of phosphopeptide present using a calibration curve generated by competition with the phosphopeptide competitor provided in the Tyrosine Kinase Assay Kit, Green (PanVera Corporation).

[4] = Homo sapiens, Mast cell, low cell density CHMC, tryptase, 3 pt, read-out: LD Tryptase, CHMC, IgE, 3 pt
[5] = Homo sapiens, Mast cell, low cell density CHMC, tryptase, 8 pt, read-out: LD Tryptase, CHMC, IgE, 8 pt
[6] = Homo sapiens, Mast cell, low cell density CHMC, tryptase release, 3 pt, read-out: LD Tryptase, CHMC, IgE, 3 pt
[7] = Homo sapiens, Mast cell, low cell density CHMC, tryptase release, 8 pt, read-out: LD Tryptase, CHMC, IgE, 8 pt

IC50 [1, 4]	IC50 [1, 5]	IC50 ([3]; isolated Syk kinase, 11 pt)	SMILES	also measured
< 10 µM	< 10 µM	< 10 µM	CNC(=O)CNC(=O)c1ccc(Nc2ncc(F)c(Nc3ccc4c(c3)C(N)CCO4)n2)cc1 (racemic) [Compound 1299, (R,S)-N4-[4-Amino-3,4-dihydro-2H-1-benzopyran-6-yl]-5-fluoro-N2-[4-[N-(N-methylamino)carbonylmethylene]aminocarbonylphenyl]-2,4-pyrimidinediamine]	IC50 ([2]; tryptase, 3 pt): > 10 µM
< 10 µM	< 10 µM	< 10 µM	COc1cc(Nc2nc(Nc3cc(C)cc(C)c3)ncc2F)cc(OC)c1 [Compound 350]	IC50 ([2]; tryptase, 3 pt): > 10 µM
< 10 µM	< 10 µM	< 10 µM	COc1cc(OC)cc(N(C)c2nc(Nc3cc(C)cc(C)c3)ncc2F)c1 [Compound 399, N4-(3,5-Dimethoxyphenyl)-N2-(3,5-dimethylphenyl)-5-fluoro-N4-methyl-2,4-pyrimidinediamine]	IC50 ([2]; tryptase, 3 pt): > 10 µM
> 10 µM	> 10 µM	> 10 µM	COc1ccc(N(C)c2nc(Cl)ncc2F)cc1OC [Compound 417]	IC50 ([2]; tryptase, 3 pt): > 10 µM
< 10 µM	< 10 µM	< 10 µM	COc1ccc(Nc2nc(Nc3cccc(-c4ncco4)c3)ncc2F)cc1OC [Compound 423, N4-(3,4-Dimethoxyphenyl)-5-fluoro-N2-[3-(oxazol-2-yl)phenyl]-2,4-pyrimidinediamine]	IC50 ([2]; tryptase, 3 pt): > 10 µM
< 10 µM	< 10 µM	> 10 µM	COc1ccc(N(C)c2nc(Nc3cccc(-c4ncco4)c3)ncc2F)cc1OC [Compound 439, N4-(3,4-Dimethoxyphenyl)-5-fluoro-N4-methyl-N2-[3-(oxazol-2-yl)phenyl]-2,4-pyrimidinediamine]	IC50 ([2]; tryptase, 3 pt): > 10 µM
			CNC(=O)COc1ccc(Nc2nc(Nc3ccc4ccn(CC(=O)NC)c4c3)ncc2F)cc1Cl [Compound 648, N4-[3-Chloro-4-(N-methylamino)carbonylmethyleneoxyphenyl]-5-fluoro-N2-[1-(N-methylamino)carbonylmethyleneindol-6-yl]-2,4-pyrimidinediamine]	IC50 ([1]; Homo sapiens, Mast cell, low cell density CHMC, tryptase release, 3 point, read-out: LD Tryptase, CHMC, IgE, 3 pt): < 10 µM; IC50 ([1]; Homo sapiens, Mast cell, low cell density CHMC, tryptase release, 8 point, read-out: LD Tryptase, CHMC, IgE, 8 pt): < 10 µM; IC50 ([2]; tryptase release, 3 point): > 10 µM; IC50 ([3]; isolated Syk kinase, 11 point): < 10 µM
		< 10 µM	COCCCn1ncc2cc(Nc3ncc(F)c(Nc4ccc(OC)c(Cl)c4)n3)ccc21 [Compound 792, N4-(3-Chloro-4-methoxyphenyl)-5-fluoro-N2-[1-(3-methoxypropyl)indazol-5-yl]-2,4-pyrimidinediamine]	IC50 [1, 6]: < 10 µM; IC50 [1, 7]: < 10 µM; IC50 ([2]; tryptase release, 3 pt): > 10 µM
		< 10 µM	COc1ccc(Nc2nc(Nc3ccc4[nH]c(C(F)(F)F)nc4c3)ncc2F)cc1Cl [Compound 800, N4-(3-Chloro-4-methoxyphenyl)-5-fluoro-N2-(2-trifluoromethyl-1H-benzimidazol-5-yl)-2,4-pyrimidinediamine]	IC50 [1, 6]: < 10 µM; IC50 [1, 7]: < 10 µM; IC50 ([2]; tryptase release, 3 pt): < 10 µM
		< 10 µM	COc1ccc(Nc2nc(Nc3ccc4c(c3)c(N)nn4C)ncc2F)cc1Cl [Compound 804, N2-(3-Amino-1-methylindazol-5-yl)-N4-(3-chloro-4-methoxyphenyl)-5-fluoro-2,4-pyrimidinediamine]	IC50 [1, 7]: < 10 µM
		< 10 µM	C[C@@H]1Oc2ccc(Nc3nc(Nc4ccc5c(c4)c(N)nn5C)ncc3F)cc2NC1=O [Compound 807, (S)-N2-(3-Amino-1-methylindazol-5-yl)-5-fluoro-N4-(2-methyl-3-oxo-4H-benz[1,4]oxazin-6-yl)-2,4-pyrimidinediamine]	IC50 [1, 7]: < 10 µM
		< 10 µM	COc1ccc(Nc2nc(Nc3ccc4c(cnn4CCCNC(C)=O)c3)ncc2F)cc1Cl [Compound 819, N2-[1-[3-(N-Acetylamino)propyl]indazol-5-yl]-N4-(3-chloro-4-methoxyphenyl)-5-fluoro-2,4-pyrimidinediamine]	IC50 [1, 7]: < 10 µM
			Cn1c(N2CCOCC2)nc2cc(Nc3ncc(F)c(Nc4ccc(Cl)c(Cl)c4)n3)ccc21 [Compound 942, N4-(3,4-Dichlorophenyl)-5-fluoro-N2-[1-methyl-2-(4-morpholino)benzimidazol-5-yl]-2,4-pyrimidinediamine]	IC50 ([1]; low cell density, 3 pt, read-out: LD Tryptase, CHMC, IgE, 3 pt): < 10 µM; IC50 ([1]; low cell density, 8 pt, read-out: LD Tryptase, CHMC, IgE, 8 pt): < 10 µM; IC50 ([3]; 11 pt): < 10 µM
			COc1ccc(Nc2nc(Nc3ccc4c(c3)nc(N3CCOCC3)n4C)ncc2F)cc1Cl [Compound 943, N4-(3-Chloro-4-methoxyphenyl)-5-fluoro-N2-[1-methyl-2-(4-morpholino)benzimidazol-5-yl]-2,4-pyrimidinediamine]	IC50 ([1]; Homo sapiens, Mast cell, low cell density, 3 pt, read-out: LD Tryptase, CHMC, IgE, 3 pt): < 10 µM; IC50 ([3]; 11 pt): < 10 µM
			Fc1cnc(Nc2ccc3[nH]c(N4CCOCC4)nc3c2)nc1Nc1ccc(Cl)c(Cl)c1 [Compound 975, N4-(3,4-Dichlorophenyl)-5-fluoro-N2-[2-(4-morpholino)-1H-benzimidazol-5-yl]-2,4-pyrimidinediamine]	IC50 ([1]; Homo sapiens, Mast cell, low cell density, 8 pt, read-out: LD Tryptase, CHMC, IgE, 8 pt): < 10 µM; IC50 ([3]; 11 pt): < 10 µM
	< 10 µM	< 10 µM	Nc1nc(Nc2nc(Nc3ccc4cn[nH]c4c3)ncc2F)n[nH]1 [Compound 1255]	
	< 10 µM	< 10 µM	CCN(CC)CCNC(=O)c1ccc(Nc2ncc(F)c(Nc3ccc(OC)c(Cl)c3)n2)cc1 [Compound 1320, N4-(3-Chloro-4-methoxyphenyl)-5-fluoro-N2-(4-[2-[N,N-diethylamino]ethyleneaminocarbonyl]phenyl)-2,4-pyrimidinediamine]	
	< 10 µM	< 10 µM	COc1ccc(Nc2nc(Nc3ccc(C(N)=O)cc3)ncc2F)cc1Cl [Compound 1321, N2-(4-Aminocarbonylphenyl)-N4-(3-chloro-4-methoxyphenyl)-5-fluoro-2,4-pyrimidinediamine]	
< 10 µM	< 10 µM	< 10 µM	CC1(C)Oc2ccc(Nc3ncc(F)c(Nc4ccc(C(N)=O)cc4)n3)cc2NC1=O [Compound 1337]	
< 10 µM	< 10 µM	< 10 µM	Cc1noc(COc2ccc(Nc3nc(Nc4ccc(C(N)=O)cc4)ncc3F)cc2)n1 [Compound 1341, N2-(4-Aminocarbonylphenyl)-5-fluoro-N4-(4-[3-methyl-1,2,4-oxadiazol-5-yl]methyleneoxyphenyl)-2,4-pyrimidinediamine]	
< 10 µM	< 10 µM	< 10 µM	CCN(CC)CCNC(=O)c1ccc(Nc2ncc(F)c(Nc3ccc(OCc4nc(C)no4)cc3)n2)cc1 [Compound 1343, N2-(4-[2-[N,N-Diethylamino]ethyleneaminocarbonyl]phenyl)-5-fluoro-N4-(4-[3-methyl-1,2,4-oxadiazol-5-yl]methyleneoxyphenyl)-2,4-pyrimidinediamine]	
< 10 µM	> 10 µM	< 10 µM	Cc1noc(COc2ccc(Nc3nc(Nc4cc(Cl)c(O)c(Cl)c4)ncc3F)cc2)n1 [Compound 1344, N2-(3,5-Dichloro-4-hydroxyphenyl)-5-fluoro-N4-(4-[3-methyl-1,2,4-oxadiazol-5-yl]methyleneoxyphenyl)-2,4-pyrimidinediamine]	
> 10 µM		< 10 µM	COc1cc(Cl)cc(Nc2ncc(F)c(Nc3ccc(OCc4nc(C)no4)cc3)n2)c1 [Compound 1345, N2-(3-Chloro-5-methoxyphenyl)-5-fluoro-N4-(4-[3-methyl-1,2,4-oxadiazol-5-yl]methyleneoxyphenyl)-2,4-pyrimidinediamine]	

SMILES	IC50 [1, 4]	IC50 [1, 5]	IC50 ([3]; isolated Syk kinase, 11 pt)	also measured
Fc1cnc(Nc2ccc3[nH]c(C(F)(F)F)nc3c2)nc1Nc1ccc(Cl)c(Cl)c1 [Compound 801, N4-(3,4-Dichlorophenyl)-5-fluoro-N2-(2-trifluoromethyl-1H-benzimidazol-5-yl)-2,4-pyrimidinediamine]			< 10 µM	IC50 [1, 6]: < 10 µM; IC50 [1, 7]: < 10 µM; IC50 ([2]; tryptase release, 3 pt): < 10 µM
CN1CCN(c2ccc(Nc3ncc(F)c(NC4CCCCC4)n3)cc2Cl)CC1 [Compound 1191, N2-[3-Chloro-4-(4-methylpiperazino)phenyl]-N4-cyclohexyl-5-fluoro-2,4-pyrimidinediamine]	< 10 µM		< 10 µM	
